Reference: a melting point compilation (Tetko et al.)

Row | Compound | melting point [°C]
1 | CCOC(=O)c1c(-c2ccccc2)csc1N=CN(C)C | 95 to 97
2 | O=C(O)C(Cn1ccc(C(F)(F)F)n1)NC1CC1 (configuration not stated) | 175 to 177
3 | C#CCOc1ccc(C=O)cc1 | 75 to 77
4 | CCS(=O)(=O)c1ccc2oc(N)nc2c1 | 209 to 211
5 | O=C(c1cc(Cl)c(Cl)[nH]1)C(Cl)(Cl)Cl | 129 to 131
6 | Sc1ncc(-c2ccc(Br)cc2)[nH]1 | 210 to 212
7 | Cn1cc(C(N)=O)c(C(F)F)n1 | 214 to 216
8 | O=C(O)Cn1cc(Br)c(=O)[nH]c1=O | 266 to 268
9 | CN1C(=O)CCC(C(=O)O)C1c1ccc(C(F)(F)F)cc1 (configuration not stated) | 188 to 190
10 | COc1ccccc1CNCCO | 65 to 67
11 | Nc1ccc(CN2C(=O)CSC2=O)cc1 | 134 to 136
12 | NS(=O)(=O)c1ccc(OCCBr)cc1 | 111 to 113
13 | O=C(O)c1ccc(Oc2ccc(F)cc2F)cc1 | 172 to 174
14 | NS(=O)(=O)c1cc(F)cc(C(=O)O)c1Br | 207 to 209
15 | CCOC(=O)c1c(C)n(C2CCCC2)c2ccc(O)cc12 | 228 to 230
16 | COc1ccc(C=O)cc1OCCCC#N | 72 to 74
17 | Cc1ccccc1C(N)CO (configuration not stated) | 99 to 101
18 | N#CCN1CCC(=O)CC1 | 91 to 93
19 | Cc1noc2nc(-c3cc(F)ccc3F)cc(C(=O)O)c12 | 237 to 239
20 | N#Cc1ccnc(OC2CCC2)c1 | 39 to 41
21 | Cc1ccc(/C=C/c2n[nH]c(S)n2)o1 | 275 to 277
22 | COc1ccc(N2CCC(N)CC2)cc1 | 50 to 52
23 | COc1ccc(Cn2cc(C(=O)O)cn2)cc1 | 132 to 134
24 | O=C(O)C=Cc1cn(-c2ccccc2)nc1-c1cc2ccccc2o1 | 225 to 227

Row | Compound | melting point [°C]
25 | Cc1ccc(-c2noc(CCC(=O)O)n2)cc1F | 142 to 144
26 | CCc1nc2cc(N)ccc2o1 | 69 to 71
27 | Nc1noc(C2CC2)n1 | 84 to 86
28 | Nc1cc(=O)[nH]c(=O)n1Cc1ccccc1 | 284 to 286
29 | Oc1ccc(-c2nc3ccccc3[nH]2)cn1 | 238 to 242
30 | O=C(O)c1ccc(N2CCCC2=O)cc1 | 250 to 252
31 | Cc1n[nH]c2ncc([N+](=O)[O-])cc12 | 189 to 191
32 | O=C1CN=C(S)N1c1ccccc1 | 253 to 255
33 | N#Cc1c(F)cccc1Oc1ccc(N)cc1 | 156 to 158
34 | Nc1ccnn1C1CCS(=O)(=O)C1 (configuration not stated) | 169 to 171
35 | COc1ccc(NS(=O)(=O)c2ccc(N)c(N)c2)cc1 | 163 to 165
36 | C#CCN1C(=O)C=CC1=O | 46 to 48
37 | Cc1nn(C)c(Cl)c1Cn1cc(Br)cn1 | 52 to 54
38 | O=C(CCl)NC(C1CC1)C1CC1 | 114 to 116
39 | Nc1ccnc(N2CCCC2)n1 | 218 to 220
40 | O=S1(=O)CCNC(c2ccccc2)C1 (configuration not stated) | 124 to 126
41 | O=C(O)c1ccc(OC2CCCC2)cc1 | 171 to 173
42 | CCc1c(C)[nH]c2ccc(Oc3ccccc3)cc2c1=O | 266 to 268
43 | O=Cc1cn(-c2ccccc2)nn1 | 97 to 99
44 | Nc1nc(C(F)(F)F)no1 | 97 to 99
45 | O=C(O)c1ccccc1SC(F)(F)F | 120 to 122
46 | COc1ccc(-c2cnc(CCC(=O)O)o2)cc1 | 158 to 160
47 | Cc1noc2nc(-c3cccs3)cc(C(=O)O)c12 | 138 to 140
48 | O=C(CCl)N1CCN(C(=O)C2COc3ccccc3O2)CC1 (configuration not stated) | 199 to 201

Row | Compound | melting point [°C]
49 | O=c1[nH]cc(Br)c2sccc12 | 229 to 231
50 | NC(=S)CCN1C(=O)c2ccccc2C1=O | 186 to 188
51 | NC(=O)c1csc(C(=O)CCl)c1 | 175 to 177
52 | N#CC1(N2CCCC2)CCNCC1 | 61 to 63
53 | Cn1cccc1C(=O)CCl | 30 to 40
54 | CNc1ncccc1C#N | 87 to 89
55 | Cc1ccc2ncc(C#N)n2c1 | 126 to 128
56 | CCCC(C)NC(=O)C(C)Cl (configuration not stated) | 51 to 53
57 | Cc1nn(-c2ccc(Cl)cc2)cc1C=O | 121 to 123
58 | Cn1nnnc1Sc1ccc(Br)cc1N | 148 to 150
59 | NS(=O)(=O)c1ccccc1Cn1ccnc1 | 149 to 151
60 | Cc1cc(C)c(CN)c(=O)[nH]1 | 139 to 141
61 | CCOc1ccc(Nc2nc3ccccc3s2)cc1 | 169 to 171
62 | O=[N+]([O-])c1ccc(Cl)nc1O | 139 to 141
63 | Cc1ccc(C(=O)Nc2ccccc2N)cc1 | 154 to 156
64 | O=C1CC2(CCCC2)C(=O)N1 | 105 to 107
65 | O=C1OC(=O)C(Cl)=C1Cl | 107 to 109
66 | CNc1ccncn1 | 77 to 79
67 | Nc1ccc(Oc2ccc(Cl)nn2)cc1 | 105 to 107
68 | N#Cc1ncn(CC(N)=O)n1 | 194 to 196
69 | N#Cc1cc(Cl)nc2ccc([N+](=O)[O-])cc12 | 173 to 175
70 | Nc1cccc(-c2ccc3c(c2)OCCO3)n1 | 117 to 119
71 | Nc1ccc(NC(=O)N2CCCCCC2)cc1 | 132 to 134
72 | c1ccc(-c2nc[nH]n2)cc1 | 117 to 119

Row | Compound | melting point [°C]
73 | O=C(O)c1c(C(F)(F)F)noc1C(F)(F)F | 169 to 171
74 | NC1CCCN(c2cc(C(=O)O)ccn2)C1 (configuration not stated) | 252 to 254
75 | Brc1ccc(NCc2cccs2)cc1 | 49 to 51
76 | Cc1cc(C)c([N+](=O)[O-])c(Cl)n1 | 59 to 61
77 | Cc1cn2cccnc2n1 | 97 to 99
78 | Nc1ccc(-c2ccccn2)cn1 | 89 to 91
79 | O=C(O)Cc1csc(-c2ccccn2)n1 | 140 to 147
80 | Nc1ccc(N2CCNCC2)cn1 | 162 to 164
81 | COc1ccc(N)cc1NS(C)(=O)=O | 125 to 127
82 | ON=C1CCCOc2ccc(Br)cc21 | 107 to 109
83 | Nc1cc(F)ccc1OCC1CCCO1 (configuration not stated) | 87 to 89
84 | COc1cc(Br)c(C=O)c(OC)c1 | 89 to 91
85 | S=C(c1cn(-c2ccccc2)nc1-c1ccccc1)N1CCCCC1 | 124 to 126
86 | Oc1ccc(-c2nc3cc(Cl)ccc3s2)cc1 | 263 to 265
87 | C=CS(=O)(=O)c1ccc(C(C)(C)C)cc1 | 91 to 93
88 | O=c1[nH]cnc2c1CCCN2 | 258 to 260
89 | O=C(O)C1CCN(C(=O)NCc2ccco2)CC1 | 138 to 140
90 | CCC(C)n1nc(C(=O)O)cc1C (configuration not stated) | 103 to 105
91 | CC(C)(C)c1ccc(NC(N)=S)cc1 | 153 to 155
92 | OCCOc1ccc(Br)cc1 | 53 to 55
93 | Cc1nc2sccn2c1CO | 180 to 182
94 | CCN(CC)S(=O)(=O)c1ccc(N2CCCCC2)c(N)c1 | 75 to 77

Further lines, results first:

Row | melting point [°C] | Compound
95 | 49 to 51 | CNc1cc(Cl)cc(CO)c1
96 | 75 to 77 | COC(=O)c1ccc2ccccc2c1O
97 | 108 to 110 | O=C(c1ccc(Cl)cc1Cl)N1CCNCC1
98 | 80 to 82 | COC(=O)c1cc(C)cc([N+](=O)[O-])c1
99 | 184 to 186 | COc1cc(C=O)ccc1OCC(=O)O
100 | 113 to 115 | CCOC(=O)c1sc2ncnc(Cl)c2c1C
101 | 160 to 162 | Cc1ccc(-n2cc(C(=O)O)nn2)cc1
102 | 203 to 205 | Cc1nnnn1-c1cc(N)ccc1C(=O)O
103 | 86 to 88 | CCOC(=O)c1cc(C)n(CC(=O)O)c1C
104 | 129 to 131 | NNC(=O)Cc1ccc(F)cc1
105 | 243 to 245 | O=C(O)C=Cc1cncc(O)c1
106 | 206 to 208 | COc1ccc2[nH]cc(C(C)=O)c2c1
107 | 129 to 131 | O=C(O)c1cc(S(=O)(=O)Cl)c(F)cc1F
108 | 88 to 90 | COC(=O)COc1cc(N)c(Cl)cc1C
109 | 102 to 104 | CC(Cl)C(=O)Nc1ccccc1C(=O)NCc1ccco1 (configuration not stated)
110 | 123 to 125 | CC(C)(C)OC(=O)NCC1(C(=O)O)CCCC1
111 | 221 to 225 | CSCc1nc2ccccc2n1CC(=O)O
112 | 147 to 149 | O=C(O)/C=C/c1cc(C(F)(F)F)ccc1Cl
113 | 38 to 40 | CCOC(=O)c1ccc(NC(=O)CCl)cc1
114 | 114 to 116 | C=CCC(NC(C)=O)C(=O)O (configuration not stated)
115 | 128 to 130 | CC(C(=O)O)c1ccc(N(C)C)cc1 (configuration not stated)
116 | 179 to 181 | Cc1cc(C)n(Cc2ccc(C(=O)O)cc2)n1
117 | 184 to 186 | COC(=O)CC1=NC(=O)CS1
118 | 83 to 85 | CCc1ccc(N)c(C(=O)OC)c1
119 | 224 to 226 | Cc1nn(-c2ccc(Cl)cc2)cc1C(=O)O
120 | 144 to 148 | CCc1ccc(N2CC(C(=O)O)CC2=O)cc1 (configuration not stated)
121 | 204 to 206 | CC(C)(C)c1ncc(C(=O)O)s1

Row | melting point [°C] | Compound
122 | 102 to 104 | CNC(=O)c1cccc(N)n1
123 | 90 to 92 | CC(Cl)C(=O)NCc1ccc(F)cc1 (configuration not stated)
124 | 113 to 115 | CCCN(CCC)C(=O)C1C2C=CC(C2)C1C(=O)O (configuration not stated)
125 | 125 to 130 | CCOc1ccc(OCC(=O)O)cc1
126 | 110 to 114 | O=C(O)CCNS(=O)(=O)c1ccccc1
127 | 187 to 189 | CC(=O)Nc1cc(NC(C)=O)cc(C(=O)O)c1
128 | 179 to 181 | O=C(CCl)Nc1cc(-n2cnnn2)ccc1Cl
129 | 82 to 84 | O=C1CCc2c1ccc(Cl)c2Cl
130 | 108 to 111 | NS(=O)(=O)CCCC(=O)O
131 | 110 to 112 | CC(C)C(NC(=O)Cc1ccccc1)C(=O)O (configuration not stated)
132 | 154 to 156 | NNC(=O)Cc1ccccc1Cl
133 | 178 to 180 | O=C(O)c1cc(Cl)ncc1[N+](=O)[O-]
134 | 154 to 156 | CS(=O)(=O)c1ccccc1CC(=O)O
135 | 132 to 134 | Cn1cc(S(=O)(=O)Cl)cc1C(N)=O
136 | 56 to 58 | O=C(CCCl)NCCc1ccccc1
137 | 132 to 134 | Cc1cc(C)cc(C2(C(=O)O)CCC2)c1
138 | 235 to 237 | CC(C)C(NC(=O)C=Cc1ccc(C(N)=O)cc1)C(=O)O (configuration not stated)
139 | 193 to 195 | Cc1[nH]c2ccc(Cl)cc2c1C(=O)O
140 | 85 to 87 | CC(=O)NC=C(Cl)Cl
141 | 116 to 118 | CC(O)CNC(=O)c1cccc(O)c1 (configuration not stated)
142 | 153 to 155 | COc1cccc(C=C(CC(=O)O)c2nc3ccccc3s2)c1
143 | 59 to 61 | CC(=O)C(N)=S
144 | 102 to 104 | Cc1cc(C)n(CC(=O)NN)n1
145 | 96 to 98 | COC(=O)c1ccc(O)c(C(C)=O)c1
146 | 173 to 175 | O=C(O)c1cc(Cl)cc(Cl)c1I
147 | 65 to 68 | Cc1cc(S(=O)(=O)Nc2ccccc2C(=O)O)ccc1F
